Data as given in PubChem BioAssay AID330 (DTP/NCI, 2004).
Several values for one entry are separate records, joined by “and”; a condition that tells them apart may be missing. Equal entries are not always repeated. Inconclusive results and toxic doses are left out.

System: P388 leukemia ip, CD2F1 mice, survival T/C
Test: NCI In Vivo Anticancer Drug Screen. Data for tumor model P388 Leukemia (intraperitoneal) in CD2F1 (CDF1) mice
Conditions: endpoint: median survival time, higher = longer survival
Outline: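 Mice carrying the transplanted tumor received test compound or vehicle. Survival was recorded in each group, and the value is the treated-group measurement divided by that of the vehicle-treated control group.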

[1] = dose: 60.0 mg/kg/injection, schedule: Q01DX005 (ip), vehicle: saline with Tween-80
[2] = dose: 120.0 mg/kg/injection, schedule: Q01DX005 (ip), vehicle: saline with Tween-80
[3] = dose: 240.0 mg/kg/injection, schedule: Q01DX005 (ip), vehicle: saline with Tween-80
[4] = dose: 50.0 mg/kg/injection, schedule: Q01DX009 (ip), vehicle: saline with Tween-80
[5] = dose: 100.0 mg/kg/injection, schedule: Q01DX009 (ip), vehicle: saline with Tween-80
[6] = dose: 200.0 mg/kg/injection, schedule: Q01DX009 (ip), vehicle: saline with Tween-80
[7] = dose: 100.0 mg/kg/injection, schedule: Q04DX003 (ip), vehicle: saline
[8] = dose: 50.0 mg/kg/injection, schedule: Q01DX009 (ip), vehicle: Klucel (hydroxypropylcellulose) (HPC)
[9] = dose: 100.0 mg/kg/injection, schedule: Q01DX009 (ip), vehicle: Klucel (hydroxypropylcellulose) (HPC)
[10] = dose: 200.0 mg/kg/injection, schedule: Q01DX009 (ip), vehicle: Klucel (hydroxypropylcellulose) (HPC)
[11] = dose: 200.0 mg/kg/injection, schedule: Q04DX003 (ip), vehicle: saline
[12] = dose: 50.0 mg/kg/injection, schedule: Q01DX005 (ip), vehicle: saline with Tween-80
[13] = dose: 100.0 mg/kg/injection, schedule: Q01DX005 (ip), vehicle: saline with Tween-80
[14] = dose: 200.0 mg/kg/injection, schedule: Q01DX005 (ip), vehicle: saline with Tween-80
[15] = dose: 25.0 mg/kg/injection, schedule: Q01DX005 (ip), vehicle: saline with Tween-80
[16] = dose: 6.25 mg/kg/injection, schedule: Q01DX009 (ip), vehicle: saline with Tween-80
[17] = dose: 60.0 mg/kg/injection, schedule: Q01DX005 (ip), vehicle: Klucel (hydroxypropylcellulose) (HPC)
[18] = dose: 120.0 mg/kg/injection, schedule: Q01DX005 (ip), vehicle: Klucel (hydroxypropylcellulose) (HPC)
[19] = dose: 240.0 mg/kg/injection, schedule: Q01DX005 (ip), vehicle: Klucel (hydroxypropylcellulose) (HPC)

For `O=C(NCCN1CCNCC1)c1ccc(Cl)cc1`, the T/C [1] was 97 % of control, the T/C [2] was 92 % of control and the T/C [3] was 93 % of control.
For `CCS1=C(C(C)=O)C(=O)O[C@H](C)C1` (stereo partly drawn), the T/C (dose: 50.0 mg/kg/injection, schedule: Q01DX005 (ip), vehicle: saline) was 100 % of control, the T/C (dose: 100.0 mg/kg/injection, schedule: Q01DX005 (ip), vehicle: saline) was 98 % of control and the T/C (dose: 200.0 mg/kg/injection, schedule: Q01DX005 (ip), vehicle: saline) was 115 % of control.
With `CC(C)OC(=O)Cn1c(=O)c2nnnn2c2ccccc21` the T/C (dose: 100.0 mg/kg/injection, schedule: Q04DX002 (ip), vehicle: Klucel (hydroxypropylcellulose) (HPC)) was 93 % of control, the T/C (dose: 200.0 mg/kg/injection, schedule: Q04DX002 (ip), vehicle: Klucel (hydroxypropylcellulose) (HPC)) was 98 % of control and the T/C (dose: 400.0 mg/kg/injection, schedule: Q04DX002 (ip), vehicle: Klucel (hydroxypropylcellulose) (HPC)) was 93 % of control.
`NC(=O)C1=CC2C3C=CC2(O)C(=O)OC3O1` (stereo not drawn) was tested, and the T/C (dose: 7.5 mg/kg/injection, schedule: Q01DX005 (ip), vehicle: Klucel (hydroxypropylcellulose) (HPC)) was 114 % of control and 119 % of control and the T/C (dose: 30.0 mg/kg/injection, schedule: Q01DX005 (ip), vehicle: Klucel (hydroxypropylcellulose) (HPC)) was 158 % of control.
In the case of `CC1=NN(C(=O)c2ccncc2)C(=O)C1N=Nc1ccc(-c2ccc(N)cc2)cc1` (stereo not drawn), the T/C [4] is reported as 97 % of control, the T/C [5] is reported as 98 % of control and the T/C [6] is reported as 96 % of control.
`COc1cc([N+](=O)[O-])ccc1N=Cc1cccs1` was tested, and the T/C (dose: 50.0 mg/kg/injection, schedule: Q01DX009 (ip), vehicle: saline) was 97 % of control, the T/C (dose: 100.0 mg/kg/injection, schedule: Q01DX009 (ip), vehicle: saline) was 93 % of control and the T/C (dose: 200.0 mg/kg/injection, schedule: Q01DX009 (ip), vehicle: saline) was 101 % of control.
`C[n+]1cccc2ccccc21` was tested, and the T/C [7] was 109 % of control.
`Cc1nn(C(=O)c2ccncc2)c(C)c1N=Nc1ccc(S(N)(=O)=O)cc1` was tested, and the T/C [8] was 105 % of control and the T/C [9] was 101 % of control.
`COc1cc2c[n+](C)c3ccccc3c2cc1OC` was tested, and the T/C (dose: 12.5 mg/kg/injection, schedule: Q01DX009 (ip), vehicle: water) was 112 % of control and 115 % of control, the T/C (dose: 25.0 mg/kg/injection, schedule: Q01DX009 (ip), vehicle: water) was 124 % of control and the T/C (dose: 100.0 mg/kg/injection, schedule: Q01DX009 (ip), vehicle: water) was 105 % of control.
In the case of `O=C(C[n+]1cccc2ccccc21)c1ccc(F)cc1`, the T/C [8] is reported as 119 % of control, the T/C [9] is reported as 97 % of control and the T/C [10] is reported as 91 % of control.
`NN1CCCC1` was tested, and the T/C [7] was 90 % of control and the T/C [11] was 95 % of control.
For `c1ccc(CC2NC(Cc3ccccc3)N3C(Cc4ccccc4)N23)cc1` (stereo not drawn), the T/C (dose: 100.0 mg/kg/injection, schedule: Q04DX003 (ip), vehicle: Klucel (hydroxypropylcellulose) (HPC)) was 102 % of control, the T/C (dose: 200.0 mg/kg/injection, schedule: Q04DX003 (ip), vehicle: Klucel (hydroxypropylcellulose) (HPC)) was 100 % of control and the T/C (dose: 400.0 mg/kg/injection, schedule: Q04DX003 (ip), vehicle: Klucel (hydroxypropylcellulose) (HPC)) was 93 % of control.
In the case of `Fc1nn2ccccc2c1C(F)(F)F`, the T/C (dose: 50.0 mg/kg/injection, schedule: Q01DX005 (ip), vehicle: Klucel (hydroxypropylcellulose) (HPC)) is reported as 99 % of control, the T/C (dose: 100.0 mg/kg/injection, schedule: Q01DX005 (ip), vehicle: Klucel (hydroxypropylcellulose) (HPC)) is reported as 104 % of control and the T/C (dose: 200.0 mg/kg/injection, schedule: Q01DX005 (ip), vehicle: Klucel (hydroxypropylcellulose) (HPC)) is reported as 100 % of control.
`O=C1c2ccccc2-n2c1nc1ccccc1c2=O` was tested, and the T/C [12] was 102 % of control, the T/C [13] was 100 % of control and the T/C [14] was 107 % of control.
With `NC(=O)CCC1CC(=O)c2ccccc2C1` (stereo not drawn) the T/C (dose: 100.0 mg/kg/injection, schedule: Q01DX001 (ip), vehicle: Klucel (hydroxypropylcellulose) (HPC)) was 94 % of control, the T/C (dose: 200.0 mg/kg/injection, schedule: Q01DX001 (ip), vehicle: Klucel (hydroxypropylcellulose) (HPC)) was 108 % of control and the T/C (dose: 400.0 mg/kg/injection, schedule: Q01DX001 (ip), vehicle: Klucel (hydroxypropylcellulose) (HPC)) was 92 % of control.
`Cc1ccc(CO)c2ccccc12` was tested, and the T/C (dose: 25.0 mg/kg/injection, schedule: Q01DX009 (ip), vehicle: saline with Tween-80) was 96 % of control, the T/C [4] was 107 % of control and the T/C [5] was 96 % of control. The T/C [6] was 96 % of control.
`O=C1CN(c2ccccc2)C(=O)CN1/N=C/c1ccco1` was tested, and the T/C (dose: 12.5 mg/kg/injection, schedule: Q01DX005 (ip), vehicle: saline with Tween-80) was 100 % of control, the T/C [15] was 95 % of control and the T/C [12] was 100 % of control and 94 % of control. The T/C [13] was 98 % of control and the T/C [14] was 103 % of control.
With `Cc1nc(C)c(Cl)c(Cc2ncnc3ccccc23)n1` the T/C [15] was 106 % of control, the T/C [12] was 96 % of control and the T/C [13] was 102 % of control.
With `CCCOc1cc2c(cc1C/C=C/c1ccccc1)OCO2` the T/C [12] was 94 % of control, the T/C [13] was 100 % of control and the T/C [14] was 102 % of control.
`COc1nncc(-c2cnnc(OC)n2)n1` was tested, and the T/C (dose: 3.13 mg/kg/injection, schedule: Q01DX009 (ip), vehicle: saline with Tween-80) was 105 % of control, the T/C [16] was 100 % of control and the T/C (dose: 12.5 mg/kg/injection, schedule: Q01DX009 (ip), vehicle: saline with Tween-80) was 102 % of control.
In the case of `COc1ccc(-c2cn(-c3ccc(OC)cc3)c3ncnc(N)c23)cc1`, the T/C [1] is reported as 102 % of control, the T/C [2] is reported as 100 % of control and the T/C [3] is reported as 96 % of control.
In the case of `CN(C)C1C(O)C2Oc3c(cc(O)c4c3C(=O)c3cc5c(c(O)c3C4=O)C(N=[N+]=N)CC(C)(O)C5)C(C)(O2)C1O` (stereo not drawn), the T/C (dose: 0.31 mg/kg/injection, schedule: Q01DX009 (ip), vehicle: other) is reported as 107 % of control, the T/C (dose: 0.62 mg/kg/injection, schedule: Q01DX009 (ip), vehicle: other) is reported as 107 % of control and the T/C (dose: 1.25 mg/kg/injection, schedule: Q01DX009 (ip), vehicle: other) is reported as 108 % of control. For the same compound, the T/C (dose: 10.0 mg/kg/injection, schedule: Q01DX009 (ip), vehicle: other) was 120 % of control.
In the case of `N#CC1CNC(N)NC1N` (stereo not drawn), the T/C [17] is reported as 99 % of control, the T/C [18] is reported as 91 % of control and the T/C [19] is reported as 90 % of control.
For `CN(C)c1ccc(C2CC(C)(O)Oc3cc4c(cc32)OCO4)cc1` (stereo not drawn), the T/C [17] was 102 % of control, the T/C [18] was 110 % of control and the T/C [19] was 108 % of control.
In the case of `C=CC(C)(C)c1c(OC)oc(-c2ccccc2)cc1=O`, the T/C (dose: 5.0 mg/kg/injection, schedule: Q01DX005 (ip), vehicle: saline + Tween-80 + alcohol) is reported as 106 % of control, the T/C (dose: 10.0 mg/kg/injection, schedule: Q01DX005 (ip), vehicle: saline + Tween-80 + alcohol) is reported as 111 % of control and the T/C (dose: 20.0 mg/kg/injection, schedule: Q01DX005 (ip), vehicle: saline + Tween-80 + alcohol) is reported as 106 % of control. The T/C (dose: 40.0 mg/kg/injection, schedule: Q01DX005 (ip), vehicle: saline + Tween-80 + alcohol) was 110 % of control.
In the case of `O=C1C=CC(=O)N1Cc1ccco1`, the T/C [7] is reported as 90 % of control, the T/C [11] is reported as 95 % of control and the T/C (dose: 400.0 mg/kg/injection, schedule: Q04DX003 (ip), vehicle: saline) is reported as 95 % of control.
With `COP(=O)(O)OC.[U]` the T/C (dose: 3.12 mg/kg/injection, schedule: Q01DX009 (ip), vehicle: saline with Tween-80) was 118 % of control and the T/C [16] was 118 % of control.
For `O=S=NSc1c(F)c(F)c(F)c(F)c1F`, the T/C [12] was 104 % of control and the T/C [13] was 111 % of control.
In the case of `Cc1ccccc1C1C(C#N)C(=O)NC(=O)C1C#N` (stereo not drawn), the T/C [8] is reported as 102 % of control, the T/C [9] is reported as 106 % of control and the T/C [10] is reported as 110 % of control.
In the case of `CC(c1ccccc1)N1COc2ccc3ccccc3c2C1` (stereo not drawn), the T/C (dose: 100.0 mg/kg/injection, schedule: Q04DX003 (ip), vehicle: saline with Tween-80) is reported as 95 % of control, the T/C (dose: 200.0 mg/kg/injection, schedule: Q04DX003 (ip), vehicle: saline with Tween-80) is reported as 95 % of control and the T/C (dose: 400.0 mg/kg/injection, schedule: Q04DX003 (ip), vehicle: saline with Tween-80) is reported as 95 % of control.
